Results published in article PMC9064817 (RSC Advances, 2019).
Like-named read-outs stand apart in the source and are kept apart here.

What was measured:
tubulin [1] = assay: fluorescence-based tubulin polymerization assay; type: biochemical, Bos taurus; conditions: read-out: Anti-tubulin activity (IC50)
tubulin [2] = assay: fluorescence-based tubulin polymerization assay; type: biochemical, Bos taurus; conditions: read-out: Anti-tubulin activity (IC50); remark: listed apart in the source

IC50 (tubulin [1])	IC50 (tubulin [2])	SMILES
2.36 µM		CN1c2cccc(C(=O)Nc3cccnc3)c2Nc2cccc(Cl)c21 [8l, 6-Chloro-5-methyl-N-(pyridin-3-yl)-5,10-dihydrophenazine-1-carboxamide]
2.64 µM		COc1cccc(NC(=O)c2cccc3c2Nc2cccc(Cl)c2N3C)c1 [8a, 6-Chloro-N-(3-methoxyphenyl)-5-methyl-5,10-dihydrophenazine-1-carboxamide]
